The values that follow come from publication PMC12557383, “Development of a Potent and Functional In Vivo Peptide Competitive Inhibitor for the Toxin MazF” (Journal of Medicinal Chemistry, 2025).

B1: MazE (E. coli antitoxin) (natural protein, UniProt P0AE72 1-82, looked up)
chain: MIHSSVKRWGNSPAVRIPATLMQALNLNIDDEVKIDLVDGKLIIEPVRKEPVFTLAELVNDITPENLHENIDWGEPKDKEVW
notes: also called full-length MazE; the antitoxin
B2: MazF_(E24A) (E. coli toxin MazF with glutamic acid 24 replaced with alanine, His6 tag removed) (enzyme)
chain: MVSRYVPDMGDLIWVDFDPTKGSAQAGHRPAVVLSPFMYNNKTGMCLCVPCTTQSKGYPFEVVLSGQERDGVALADQVKSIAWRARGATKKGTVAPEELQLIKAKINVLIG
notes: For NMR the same construct was 15N or 15N/13C labelled; also called the toxin; source: E. coli BL21 (DE3) RIL, purified (Ni-NTA, TEV cleavage, second Ni-NTA, SEC); not shown: His6, N-terminal, cleaved
B3: Small Antitoxin of MazF (SamF), synthetic peptide Ac-SHLFWAQFDEYF-NH2 (peptide)
peptide: Ac-SHLFWAQFDEYF-NH2
notes: also called synthetic SamF; the synthetic peptide; source: synthetic peptide (microwave-assisted solid phase, RP-HPLC purified)
B4: SamF D9K mutant peptide (peptide)
peptide: Ac-SHLFWAQFKEYF-NH2
notes: the substitution is still to be applied; source: synthetic peptide

Data set [1] deals with T1, MazFE24A (Escherichia coli, UniProt P0AE70, E24A).
T1 construct: His6 (N, cleaved yes); made in house; host or cells: E. coli BL21 (DE3) RIL
T1 sequence (P0AE70 1-111 E24A): B2 chain
Briefly: Isothermal titration calorimetry (ITC), binding to MazFE24A. Particulars: peptide into MazFE24A, pH about 7.10, one set of sites model. How it is done: Experiments were performed in a Malvern VP-ITC microcalorimeter with a reference offset of 15 μcal s^–1, syringe speed of 250 rpm, preinjection delay of 300 s, and a recording interval of 2 s. The thermodynamic parameters of binding were obtained by fitting the experimental thermogram (Origin 7.0 software) to the “one set of sites” model supplied by the equipment after subtracting the heat of dilution. […] Titrations of MazFE24A with SamF were carried out by 20 injections of 15 μL of SamF (225 μM) to a 28 μM MazFE24A solution contained in the calorimetric cell. Samples of MazFE24A and SamF were prepared in the same buffer with a final pH of about 7.10 (30 mM NaHPO4, 4 mM NH4HCO3, 60 mM NaCl, 0.3 mM EDTA, and 2.4 mM DTT).
(In general: Isothermal titration calorimetry measures the heat released or taken up as one component is titrated into another.)

Data set [2] concerns the target T2, His^6-MazF (Escherichia coli, UniProt P0AE70).
T2 construct: made in house
T2 sequence (P0AE70 1-111): B2 chain with A24E
Put plainly: His6-MazF enzyme activity with fluorescence-suppressed chimeric DNA/RNA substrate. The format is biochemical. As to the method:
Toxin activity was assessed with a chimeric DNA/RNA substrate labeled with a fluorophore on the 5′ end and a quencher on the 3′ end (Tables S1–S13) as described. The reaction was performed in 50 mM Tris, pH 7, containing 1 mM EDTA in a 96-well plate and in a final volume of 100 μL. The buffer was initially equilibrated at 35 °C, and His^6-MazF was added to a final concentration of 0.75 μM. Inhibitors were incubated with His^6-MazF for 20 min/35 °C before the reaction was started with 0.5 μM of substrate. Fluorescence intensity was recorded every half minute for 90 min on a SpectraMax Paradigm spectrometer (Molecular Devices) at 35 °C with an excitation wavelength of 488 nm and detection at 520 nm. The fluorescence values of all reactions were subtracted from that of the negative control containing only buffer and substrate. The highest fluorescence value obtained for the reaction catalyzed by His^6-MazF was set to 1, and the fluorescence values obtained for all other reactions were normalized relative to this.
The mechanism of inhibition of the toxin by SamF was determined by measuring the initial enzyme-catalyzed ACA site hydrolysis rates (v 0) in the absence and presence of increasing concentrations of the inhibitor. The concentration of His^6-MazF was 0.75 μM. V 0 was considered as the slope of the catalytic curve (fluorescence increase per time) at the initial moments of the reaction up to a maximum of 5 min, after the addition of the substrate. The Lineweaver–Burk graph was generated by plotting the reciprocal of v 0 as a function of the reciprocal of the substrate concentration in the presence of different amounts of inhibitor.
The IC50 value for the inhibition of MazF was calculated by measuring the v 0 as described above in the presence of different concentrations of the inhibitor. The concentration of His^6-MazF was 0.75 μM, and that of the substrate was 0.5 μM.

The target of data set [3] is T1, MazFE24A. Put plainly: Competition ligand binding by displacement ITC (MazE vs SamF). Particulars: 50 μM MazE titrated into 10 μM MazFE24A with 0, 10 or 30 μM SamF. From the text:
Raw heats were integrated and fitted by a least-squares algorithm to the “one set of sites” model to calculate thermodynamic parameters after subtracting the heat of dilution.

The nature of data set [4]: Solubility of the purified peptide. The format is physicochemical.
Data set [5] in a line: CD spectroscopy, α-helix content by K2D2 deconvolution. It is filed as physicochemical. The following applies: 0.25 mg/mL in 10 mM NaHPO4, CD deconvolution with K2D2. As to the method: CD spectra were recorded in a Jasco 815 spectropolarimeter with a 0.25 mg/mL concentrated sample of SamF in 10 mM NaHPO4 buffer. CD spectra were recorded with 1 nm data pitch, 1 s of integration time, scanning speed of 50 nm/min, and wavelength range from 200 to 260 nm. The final spectrum is the average of eight accumulations. The peptide spectrum was subtracted from that of the buffer and smoothed by the Savitzky-Golay method.

For data set [6], the target named is T3, MazF_(E24A) (E. coli toxin MazF with glutamic acid 24 replaced with alanine, His6 tag removed) (E. coli, UniProt P0AE70 1-111, E24A). Put plainly: ITC.
Data set [7] deals with T3, MazF_(E24A) (E. coli toxin MazF with …). Briefly: ITC; in presence of 10 uM SamF.
Data set [8] shares this target. Briefly: ITC; in presence of 30 uM SamF.
The target of data set [9] is B2. Briefly: ITC; MazE (50 μM) in the syringe, 20 injections of 8 μL into 10 μM MazF_(E24A) in the cell; 50 mM NaHPO4 pH 7, 100 mM NaCl, 0.5 mM EDTA, 4 mM DTT; one set of sites model. Particulars: both partners purified.
Data set [10] concerns the molecule itself. Briefly: SEC-MALS; Superdex 75 10/300 GL in NMR buffer; 100 μL of 200 μM MazF_(E24A) alone or with an equimolar concentration of SamF.
Data set [11] addresses T4, His^6-MazF (wild-type E. coli toxin MazF) (E. coli, UniProt P0AE70 1-111).
T4 sequence: B2 chain with A24E
Briefly: cell-based or functional assay.

In data set [12] the target is B2. Put plainly: ITC; SamF (225 μM) in the syringe, 20 injections of 15 μL into 28 μM MazF_(E24A) in the cell; 30 mM NaHPO4, 4 mM NH4HCO3, 60 mM NaCl, 0.3 mM EDTA, 2.4 mM DTT, pH about 7.10; one set of sites model; average of two independent experiments. Particulars: both partners purified.
The target of data set [13] is B2. The following applies: both partners purified.
Data set [14] addresses T3, MazF_(E24A) (E. coli toxin MazF with …). Put plainly: ITC. This is another data set of the same source.
[15] abbreviates: SamF: average of two independent experiments.

Numbering of substitutions follows the chain as printed. Names and notes keep the numbering of the source. Values joined by “and” are separate entries in the source; they are usually repeats but may differ in a detail not shown here. Equal values may be shown once.

Regarding Ac-SHLFWAQFDEYF-NH2 [SamF], the TΔS in data set [1] (setting [15]) was -3.9 kcal/mol and -3.9 ± 1.9 kcal/mol. The molecule also showed a ΔH in data set [1] (setting [15]) of -11.8 ± 1.6 kcal/mol. For the same molecule, in [2] (0.75 μM His6-MazF, increasing substrate and inhibitor concentrations, Vmax unaffected, KM enhanced), the “Mechanism of inhibition (Lineweaver–Burk)” value was “competitive inhibition”. Further, in data set [2] (in the presence of about 0.5 μg of E. coli proteins), the “Inhibition of His6-MazF in whole E. coli cell lysate (result in words)” value is listed as “still efficiently able to inhibit”. Besides, in data set [3], the “Competition with MazE for binding to MazF (result in words)” value is recorded as “compete for binding to MazF”. Moreover, the “Solubility at neutral pHs (result in words)” value in [4] (neutral pH) was “low solubility”. In [4] (pH 8–9), the “Solubility at pHs 8–9 (result in words)” value is recorded as “highly soluble”. For the same molecule, the α-helix content in data set [5] (pH 7.0, 25 °C) worked out at 82.6%; in data set [5] (pH 7.6, 25 °C), 39.11%; in data set [5] (pH 8.0, 25 °C), 23.36%.

As for Ac-SHLFWAQFKEYF-NH2 [SamF_D9K], in data set [1], the “protein:peptide complex stoichiometry (N)” value was found to be 1.0 ±0.1. This molecule came in with a TΔS in data set [1] (setting [15]) of -2.8 ± 0.9 kcal/mol. For the same molecule, the “Inhibition of His6-MazF catalysis (result in words)” value in [2] (0.75 μM His6-MazF, 0.5 μM substrate, 50 mM Tris pH 7, 35 °C, 20 min preincubation, fluorescence over 90 min) is reported as “still able to prevent MazF catalysis”.

For the molecule B1, the Kd in data set [6] was found to be 5 nM; in data set [7], 6 nM; in data set [8] it was 2 nM. Further, the dH in data set [9] was -25.6 ± 1.7 kcal/mol. Besides, in data set [9], the “stoichiometry N” value was determined as 0.5.

Turning to B2, the “stoichiometry N” value in data set [10] worked out at 2.

On to B3, for which, in [11], the “IC50 of inhibition of His6-MazF (0.75 μM) cleavage of a fluorescence-suppressed DNA–RNA chimeric substrate (0.5 μM)” value was determined as 2170 nM. Also, in [12], the affinity, expressed as Kd, was 2500 ± 700 nM; the dH was -11.8 kcal/mol; the “stoichiometry N” value was 1.

For B4, the “fold change of KD against SamF” value in data set [13] is 2 fold. This molecule also returned a Kd in data set [14] of 6600 nM.

The Kd is the free concentration of one partner at which half of the binding sites on the other are occupied at equilibrium, for simple one-to-one binding. By stoichiometry N is commonly meant a count of units in the complex or per binding partner.
